This is an account of results in patent US6686496B1, “Treatment of myeloma” (University of Central Florida, priority 2001, dated 2004).

Data set [1] in a line: Animal toxicity bioassay: acute toxicity, intraperitoneal injection, LD50 by Litchfield and Wilkinson. In kind it is in vivo. As to conditions: both sexes, mouse, in vivo, ip, white mice, observed 14 days. As for the experimental part: (§1) Acute toxicity was studied on white mice of both sexes with weight ranging between 18-26 grams under intraperitoneal injection of 2% solution of tested compound in starch (the compound was dissolved in starch slime and injected) on the basis of 0.1 ml of solution per 10 g of the animal weight. Each dose was tested on the group of 6 animals that were observed during 14 days period.

Data set [2] is described as follows: Solubility in solvents and water.
Another data set has as its system white mice. The data set is described as follows: Animal toxicity bioassay: acute toxicity, intraperitoneal injection, LD50 by Litchfield and Wilkinson. In kind it is in vivo. Particulars: Table 1, observed 14 days. As for the experimental part: as §1
Data set [3] has as its system human myeloma cells (ATCC CCL155). The data set is described as follows: Cytotoxicity assay: growth inhibition of CCL155 cells, MTS/PMS readout. The class given is cell-based. Particulars: Table 1, approximately 48 hours with test compound, concentration not given. As for the experimental part:
The anticancer activity against human myeloma of the novel compounds (as earlier reported) was realized by the following procedure which determines the inhibitory effect of test samples on the growth of human myeloma cells.
[…]
(ATCC CCL155) The CCL155 cells are grown in RPMI 1640 media+20% Fetal bovine serum+4.5 g/L glucose+10 mM HEPES+1.0 mM sodium pyruvate+1% Antibiotic/Antimycotic for approximately 48 hours at 37° C./5% CO2 in the presence of the test compound.
Growth/Non-Growth of the cells (e.g., cell density) is determined using Promega's MTS/PMS assay system. MTS (3-(4,5-dimethylthiazol-2-yl)-5-(3-carboxymethoxyphenyl)-2-(4-sulfophenyl)-2H-tetrazolium, inner salt) is an aqueous compound that is reduced to soluble formazan by the presence of NADH formed by dehydrogenases present within the CCL155 cells. The absorbance of the formazan can be measured at 490 nm and is directly proportional to the number of living cells present in the culture. PMS (Phenazine Methosulfate) is added an electron coupling reagent and greatly increases the rate of reduction.
To facilitate a full understanding of the procedure the following definitions are offered:
Test wells—wells containing test sample and Diluted CCL155 cells
Test values—absorbance of test wells
Blank wells—wells containing test sample and CCL155 media (C155-01S); used to obtain background absorbance due to test sample
Blank values—absorbance of blank wells
Negative Control—maximal cell growth; results of test samples will be expressed as a percent of the Negative Control
Positive Control—known inhibitor of CCL155 cells; used to validate assay system
Matrix—solvent that the samples are prepared/diluted in […]
Blank values will be determined for each sample to account for any color contribution due to the sample itself. […] After completion of MTS/PMS reaction blank values will be subtracted from the test value to obtain a net absorbance that will be used to calculate cell density. […]
In order to establish the accuracy of this assay a Positive Control consisting of 50 μM Methotrexate […] of the Negative Control (CCL155 cells are somewhat resistant to methotrexate) is utilized.
In order to establish the accuracy of this assay a Positive Control consisting of 50 μM Methotrexate should show less than 75% of the net absorbance of the Negative Control is utilized.

The next data set in a line: Stability in solutions. In kind it is physicochemical. As to conditions: solution heated or stored for a long time; forms OF-12.
The subject of a further data set is mice. As to conditions: cited from earlier work.

The LD50 is the dose expected to kill half of the subjects tested.

Some results are limits rather than exact numbers.

`COC(=O)/C(=C/C(=O)c1ccccc1)N/N=C(\c1ccccc1)c1ccccc1Br` [OF-09, 2-{N′-[(2-Bromo-phenyl)-phenyl-methylene]-hydrazino}-4-oxo-4-phenyl-but-2-enoic acid methyl ester]: in data set [1], the 50% lethal dose (LD50) at 14 days was above 5000 mg/kg. In data set [2], the “Solubility in DMSO, DMFA, dichloroethane, acetonitrile” value (from here on “Solubility in DMSO, DMFA”) is given as “highly soluble” and the Solubility in water entry is on record as “insoluble”.
For the compound `COC(=O)C(=CC(=O)C(C)(C)C)NN=C1c2ccccc2-c2ccccc21` [OF-06, 2-(N′-Fluoren-9-ylidene-hydrazino)-5,5-dimethyl-4-oxo-hex-2-enoic acid methyl ester], the LD50 in the data set with white mice is above 3000 mg/kg. In addition, in data set [1], the median lethal dose (LD50) at 14 days is above 3000 mg/kg. The “Activity (ATCC CCL155)” value in data set [3] is 82%. Besides, the “Solubility in DMSO, DMFA” value in data set [2] was “highly soluble”. In addition, the “Solubility in ethanol, tetrachloromethane” value in data set [2] (ethanol, tetrachloromethane) is recorded as “slightly soluble”. The Solubility in hexane result in data set [2] (hexane) is on record as “insoluble”.
`CCOc1ccc(/C(Cl)=C/C(=N\N=C2c3ccccc3-c3ccccc32)C(=O)OC)cc1` [3F-19, 4-Chloro-4-(4-ethoxy-phenyl)-2-(fluoren-9-ylidene-hydrazono)-but-3-enoic acid methyl ester] gave a 50% lethal dose (LD50) in the data set on white mice above 200 mg/kg. In data set [3], the “Activity (ATCC CCL155)” value amounted to 100%.
As to `CCOc1ccc(C(=O)CC(O)(NN=C2c3ccccc3-c3ccccc32)C(=O)OC)cc1` (stereo not drawn) [OF-13, 4-(4-Ethoxy-phenyl)-2-(N′-fluoren-9-ylidene-hydrazino)-2-hydroxy-4-oxo-butyric acid methyl ester], in “Stability in solutions”, the Stability in solutions result was “not stable in solutions and decomposes quickly when the solution is heated or stored for a long time”. Moreover, the LD50 at 14 days in data set [1] was above 1500 mg/kg. Further, the “Activity (ATCC CCL155)” value in data set [3] worked out at 99%.
`COC(=O)C(=CC(=O)c1ccc(Cl)cc1)NN=C1c2ccccc2-c2ccccc21` [OF-07, 4-(4-Chloro-phenyl)-2-(N′-fluoren-9-ylidene-hydrazino)-4-oxo-but-2-enoic acid methyl ester] displayed an LD50 at 14 days in data set [1] above 750 mg/kg. In addition, in data set [2], the “Solubility in DMSO, DMFA” value is recorded as “highly soluble” and the Solubility in water result is on record as “insoluble”.
In the case of `COC(=O)/C(=C/C(=O)c1ccccc1)N/N=C(\C)c1ccc(Cl)cc1` [OF-20, 2-{N′-[1-(4-Chloro-phenyl)-ethylidene]-hydrazino}-4-oxo-4-phenyl-but-2-enoic acid methyl ester], the median lethal dose (LD50) at 14 days in data set [1] was above 250 mg/kg. Also, in data set [2], the “Solubility in DMSO, DMFA” value was “highly soluble”; the Solubility in chloroform result is given as “highly soluble”; the Solubility in water result is on record as “insoluble”.
Take `N[C@@H](Cc1ccc(N(CCCl)CCCl)cc1)C(=O)O` [Melphalan]: the “Toxicity: LD50 in mice” value with mice is 23 mg/kg.
On to `COC(=O)/C(=C/C(=O)c1ccccc1)NN=C1c2ccccc2-c2ccccc21` [1F-04, 2-(N′-Fluoren-9-ylidene-hydrazino)-4-oxo-4-phenyl-but-2-enoic acid methyl ester], for which the LD50 at 14 days in data set [1] is above 1000 mg/kg. Further, the “Activity (ATCC CCL155)” value in data set [3] stood at 93%. Moreover, in data set [2], the “Solubility in DMSO, DMFA” value was “highly soluble” and the Solubility in water result was “insoluble”.
With `COC(=O)/C(=C/C(=O)c1ccccc1)N/N=C(\c1ccccc1)c1ccc(N(C)C)cc1` [OF-10, 2-{N′-[(4-Dimethylamino-phenyl)-phenyl-methylene]-hydrazino}-4-oxo-4-phenyl-but-2-enoic acid methyl ester], the median lethal dose (LD50) at 14 days in data set [1] is above 1500 mg/kg. In addition, in data set [2], the “Solubility in DMSO, DMFA” value was “highly soluble”; the Solubility in chloroform result is given as “highly soluble”; the Solubility in water result is on record as “insoluble”.
